One test relates to C57BL/6 mice. Nature of the test: Murine CCL22 peptide vaccination, IFNγ ELISPOT on splenocytes. The test is classed as in vivo. The conditions noted are these: 100 μg peptide s.c. in IFA/PBS once a week for 3 weeks. As for the experimental part: Murine CCL22 peptide (TAG Copenhagen, Denmark) stocks of 10 mM (mCCL22Short) and 5 mM (mCCL22Long) were made in DMSO. Mice were vaccinated subcutaneously (s.c) on the lower back with 100 μg peptide in 1:1 (vol/vol) IFA/PBS emulsion in a total volume of 100 μl. Mice were vaccinated once a week for 3 weeks and sacrificed one week after the last vaccination.
Spleens from sacrificed mice were removed and smashed through a cell strainer ([…]) and washed with R10 media: RPMI 1640 (Gibco® by Life technologies™) with 10% FCS (Gibco® by Life technologies™). Red blood cells lysed by adding red blood cell lysis buffer for 2 min, followed by two washes with R10 with 10% fetal bovine serum.
ELISPOT was performed as described by the manufacturer's instruction. In short, 96-well MSIPN4W ELISPOT plate (Millipore) were coated with mouse IFNγ-specific capture Ab (AN18: Mabtech) in a concentration of 12 μg/ml in PBS overnight at 4° C., 8×10^5 or 4×10^5 splenocyteslwell were seeded in the plate in triplicates. To investigate IFNγ response to murine CCL22 peptides, cells were incubated with different peptides (5 μM) or R10 as control for 18-20 h at 37° C. ELISPOT was developed with mouse IFNγ-specific detection Ab (R4-6A2-biotin; Mabtech) in a concentration of 1 μg/ml in Buffer (PBS, 0.5% BSA and NaN3) for 2 h at room temperature, followed by 6 washes in PBS. […]

The test system of another test is T2 cells. Nature of the test: 51Cr-release cytotoxicity assay, peptide-pulsed T2 cells. The test is classed as cell-based. To be noted: for T-cell avidity of pCCL223-12-specific T cells, peptide titration: effector to target ratio 3:1. As to the method: Conventional ^51Cr-release assays for CTL-mediated cytotoxicity were carried out as described elsewhere (Andersen et al., 1999). Target cells were T2-cells (ATCC), HLA-A2^+ EBV transformed B-cell line (RPM16666), AML cells (UKE-1 and THP1) colon cancer cells (SW480), melanoma cell line (FM55-M2), Breast cancer cells MDA-MB231 with or without IFN-γ (100 U/m1) addition for 2 days prior to performing cytotoxicity assay. For peptide titration cytotoxicity assay, T2 cells were used as target cells and a constant effector to target ratio of 3:1 was used for all peptide concentrations.

Test [1] concerns PBMCs from cancer patients and healthy donors. Briefly: IFNγ ELISPOT on PBMCs. The test is classed as cell-based, human. As for the experimental part:
In the present study the ELISPOT was performed according to the guidelines provided by CIP (http://cimt.eu/cimt/files/dl/cip guidelines.pdf). The ELISPOT assay was used to quantify peptide epitope specific effector cells that release cytokines (IFNγ, TNFα, IL-17A or IL-10) as described previously (Sorensen et al., 2012). In some experiments, PBMCs were stimulated once in vitro with peptide prior to analysis. In some experiments, 104 autologous DCs were added to the wells as antigen presenting cells. The spots were counted using the ImmunoSpot Series 2.0 Analyzer (C.T.L.—Europe, Bonn, Germany). In some experiments, CD4+ cells were isolated by EasySep human CD4^+ T cell enrichment kit (Stem Cell technologies, Grenoble, France) following manufacturers' instructions. This yielded highly pure cultures (>97% CD4+), which was confirmed by staining with surface antibodies as described below for intracellular cytokine staining (ICS) and flow cytometry (FCM).
PBMCs were placed in the bottom of ELISPOT plate (nitrocellulose bottomed 96-well plates by MultiScreen MAIP N45; Millipore) pre-coated with IFN-γ capture Ab (Mabtech) and the peptides were added at 5 μg/ml. PBMCs from each patient were set up in duplicates or triplicates for peptide and control stimulations. Cells were incubated in ELISPOT plates in the presence of an antigen for 14-16 hours after which they are washed off and secondary biotinylated Ab (Mabtech) was added. After 2h incubation unbound secondary antibody was washed off and streptavidin conjugated alkaline phosphatase (AP) (Mabtech) was added for 1 h. Next, unbound conjugated enzyme is washed off and the assay is developed by adding BCIP/NBT substrate (Mabtech). Developed ELISPOT plates were analysed on CTL ImmunoSpot S6 Ultimate-V analyzer using Immunospot software v5.1. Responses were calculated as the difference between average numbers of spots in wells stimulated with pCCL223-12 peptide and control wells. […]

Test [2] deals with CCL22-specific T cell cultures. Briefly: Intracellular staining for IFNγ and TNFα after peptide stimulation. The test is classed as cell-based, human. As for the experimental part:
(§1) The following day IL-7 and IL-12 (PeproTech, London, UK) were added. […] The day after peptide stimulation IL-2 (PeproTech, London, UK) was added. 4 DC stimulations and 1 PBMC stimulation were made in total.
The cells were then stained for surface markers, then washed and permeabilized by using Fixation/Permeabilization and Permeabilization Buffer (eBioscience), according to manufacturer's instructions. Antibodies used: IFNγ-PE-Cy7, TNFa-APC, CD4-PerCP, CD8− FITC (all from BD Biosciences). Dead cells were stained using LIVE/DEAD® Fixable Near-IR Dead Cell Stain Kit according to manufacturer's instructions.

Test [3] has as its system PBMCs from a melanoma patient. Briefly: HLA-A2/peptide tetramer staining. The format is cell-based, human. As for the experimental part: as §1
HLA-A2 multimers were produced in house by using a previously described MHC peptide exchange technology (15).

For a further test, the system named is K562-A2 cells. Briefly: 51Cr-release assay, HLA-A2-transfected K562 cells pulsed with peptide. The format is cell-based.
The subject of a further test is HLA-negative K562 cells. Nature of the test: 51Cr-release assay, non-transfected K562 cells pulsed with peptide. The format is cell-based. As for the experimental part:
Conventional ^51Cr-release assays for CTL-mediated cytotoxicity were carried out as described elsewhere (Andersen et al., 1999). Target cells were T2-cells (ATCC), HLA-A2^+ EBV transformed B-cell line (RPM16666), AML cells (UKE-1 and THP1) colon cancer cells (SW480), melanoma cell line (FM55-M2), Breast cancer cells MDA-MB231 with or without IFN-γ (100 U/m1) addition for 2 days prior to performing cytotoxicity assay.

Test [4] relates to CCL22. Briefly: CCL22 ELISA of PBMC supernatants after peptide stimulation. The test is classed as cell-based, human. As for the experimental part: Cell culture supernatants from PBMC, cancer cell lines and ascites cell cultures as well as siRNA transfected THP-1 cells were analyzed using Human CCL22/MDC DuoSet ELISA kit (R&D Systems) according to manufacturer's instructions.
(§2) PBMCs from healthy donors or cancer patients were thawed and rested for 4 hours in X-VIVO 15™ (Lonza) before being set up into 24-well plates with 2×10^6 cells/well in X-Vivo medium with 5% human serum. […] Appropriate amount of DMSO was added to HIV control wells to control for the solvent of pCCL223-12 peptide. The following day, IL-2 was added to a final concentration of 120 U/ml (360 U for ascites cells stimulation). Supernatant samples were collected after 2 or 7 days of culture. Cells were stimulated twice before being tested in ELISPOT assay.
Background: An ELISA detects its analyte on a solid surface through an enzyme-linked reagent.

Test [5] deals with CCL22. Briefly: CCL22 ELISA of ovarian cancer ascites cell supernatants after peptide stimulation. To be noted: ascites cells from ovarian cancer patients, IL-2, compared to HIV peptide. The test is classed as cell-based, human. As to the method:
Peripheral Blood Mononuclear Cells (PBMC) were collected from healthy individuals and cancer patients (melanoma, renal cell carcinoma and breast cancer patients). Blood samples were drawn a minimum of four weeks after termination of any kind of anti-cancer therapy. PBMC were isolated using Lymphoprep™ separation, HLA-typed and frozen in FCS with 10% DMSO. Fresh ovarian ascites was filtered with a 70 μm filter and the cells were isolated by centrifugation (1500 […], 5 min). If the ascites contained a high abundance of erythrocytes, they were removed by adding lysis-buffer (Ortho-Mune Lysing Solution) to the cells with incubation of 3-5 min. The lysis-buffer was quickly washed away and the cells cryopreserved in human serum with 10% DMSO at −140 degrees until use. The protocol was approved by the Scientific Ethics Committee for The Capital Region of Denmark and conducted in accordance with the provisions of the Declaration of Helsinki. Written informed consent from the patients was obtained before study entry.
Cell culture supernatants from PBMC, cancer cell lines and ascites cell cultures as well as siRNA transfected THP-1 cells were analyzed using Human CCL22/MDC DuoSet ELISA kit (R&D Systems) according to manufacturer's instructions. […]

A further test has as its system PBMCs. Nature of the test: Cytokine expression LUMINEX of PBMC supernatants after peptide stimulation. The format is cell-based, human. As for the experimental part:
as §2, with “assay. Cell culture supernatants from PBMCs or ascites cells stimulated with CCL22-3 or HIV peptide were analyzed for IFN-γ, TNF-α, IL-6, IL-10 and 1 L-1β using Bio-Plex Pro™ Human Chemokine assays from Bio-Rad. […] Wilcoxon-signed rank test was used for statistical analysis of IL-10 expression due to multiple zero values.” for “assay.”

“Also recorded” adds a separate entry of the source. Like-named read-outs stand apart in the source and are kept apart here.

With “MATLRVPLLVALVLLAVAIQTS (listed as Mus musculus) [mCCL22long, long murine CCL22 peptide]”, in the test with C57BL/6 mice, the “IFNγ ELISPOT immune response of splenocytes of vaccinated mice” value is on record as “increased immune response”.

In the case of “MDRLQTALLVVLVLLAVALQAT (listed as Homo sapiens) [CCL22long, Polypeptide fragment of human CCL22]”, the “lysis of peptide-pulsed T2 cells by CCL22-specific T cells” value with T2 cells was “recognized and killed”; with T2 cells (listed as CCL22-signal peptide), “lysed”.

With “RLQTALLVV (listed as Homo sapiens) [pCCL223-11, Polypeptide fragment of human CCL22]”, the results for the “T-cell avidity of pCCL223-12-specific T cells, peptide titration” value with T2 cells and in the test on T2 cells (listed as CCL22-2) were “reacted towards both peptides” and “cross-react”, respectively.

Turning to “RLQTALLVVL (listed as Homo sapiens) [pCCL223-12, Polypeptide fragment of human CCL22]”, the “spontaneous specific T-cell reactivity, IFN-γ ELISPOT” value in [1] (PBMCs from 13 cancer patients and 10 healthy individuals, peptide stimulation for two weeks with low-dose IL-2) was “detected in a number of melanoma patients and healthy donors”. The “overall ELISPOT responses, healthy donors versus cancer patients” value in test [1] (peptide stimulation for two weeks with low-dose IL-2) is “similar”. Further, the “specific responses by IFNγ ELISPOT” value in test [1] (screen of PBMCs from cancer patients) is on record as “Indications for specific responses”. Besides, the “CD4+ T cell response (IFNγ, TNFα) to peptide stimulation” value in test [2] is given as “no response detected”; in [2] (listed as CCL22-3) it was “no reactivity”. Also, the “CD8+ T cell response (IFNγ, TNFα) to peptide stimulation” value in [2] (listed as CCL22-3) is “CD8+ (Left) and not CD4+ (Right) T cells react; also recorded: secreting IFN-γ and TNF-α”. Also, in [2] (tetramer-isolated, expanded culture), the “CD8+ cells secreting IFNγ and TNFα in response to peptide stimulation” value was “Around 30%”. The tetramer-positive cells result in test [3] (after five stimulations with peptide-pulsed autologous DCs or PBMCs) is recorded as “small but distinct population of tetramer-positive cells”; in [3] (after tetramer isolation and expansion) it was “clear population”. Further, the “lysis of peptide-pulsed T2 cells by CCL22-specific T cells” value in the test with T2 cells is “able to lyse”; with T2 cells (listed as CCL22-3), “lysed; also recorded: specifically recognize and lyse”. In addition, the “T-cell avidity of pCCL223-12-specific T cells, peptide titration” value with T2 cells is given as “highest avidity”; in the test with T2 cells (listed as CCL22-3), “recognized better”. Besides, the “recognition of HLA-A2-transfected K562 cells pulsed with peptide” value with K562-A2 cells is “only recognized”; in the test on K562-A2 cells (listed as CCL22-3), “recognized and killed”. The “recognition of non-transfected K562 cells pulsed with peptide” value in the test with HLA-negative K562 cells is “not recognized”. The “CCL22 concentration in supernatants compared to HIV control peptide” value with CCL22 [4] (PBMCs from 11 healthy donors, one week after stimulation) is listed as “significantly decreased”. The “overall decrease in CCL22 concentration compared to HIV control peptide” value in the test on CCL22 [4] (PBMCs from 13 cancer patients, one week after stimulation) is on record as “did not reach significance”. Also, the “CCL22 concentration compared to HIV control peptide” value in the test with CCL22 [4] (PBMCs from cancer patients with high CCL22 expression (≥5000 pg/mL)) was “significant decrease”. The “CCL22 expression in supernatant compared to HIV control peptide” value in the test with CCL22 [4] (donor PBMCs with ELISPOT response, over one week, IL-2) is “lower”. Further, the figures for the “overall CCL22 levels in supernatants” value in the test with CCL22 [5] and with CCL22 [5] (listed as CCL22-3) were “decrease” and “affected”, respectively. The “IL-10 in the supernatants after stimulation” value in the test on PBMCs is listed as “almost undetectable”. Further, the “IL-6 level compared to HIV control peptide” value in the test on PBMCs (PBMCs from 11 cancer patients, one week of stimulation) is “significant increase”. The “cultures with decreasing TNFα levels” value in the test on PBMCs (PBMCs from cancer patients, one week of stimulation) was 7 out of 11; with PBMCs (PBMCs from healthy donors, one week of stimulation), 7 out of 10. In addition, the “IFN-γ concentration versus control peptide” value in the test with PBMCs (culture supernatants) was “no unambiguous differences”. Further, the “IL-1β concentration versus control peptide” value with PBMCs (culture supernatants) is “no unambiguous differences”. Further, the “IL-10 concentration versus control peptide” value in the test on PBMCs (culture supernatants) is listed as “no unambiguous differences”. In addition, the “IL-1 induced after stimulation” value with PBMCs (data not shown) is “only one cancer patient and two healthy donors”.

On to “VALVLLAVAI (listed as Mus musculus) [mCCL22short, short murine CCL22 peptide; part of mCCL22Long]”, for which the “IFNγ ELISPOT immune response of splenocytes of vaccinated mice” value with C57BL/6 mice is “increased immune response”.
